Values joined by “and” are separate entries in the source; they are usually repeats but may differ in a detail not shown here. Equal entries are not always repeated. Where two headings read alike, the source gives them in different places.
Molecular target: T1, GLUT1 (Homo sapiens, UniProt P11166)
T1 sequence (P11166 1-492): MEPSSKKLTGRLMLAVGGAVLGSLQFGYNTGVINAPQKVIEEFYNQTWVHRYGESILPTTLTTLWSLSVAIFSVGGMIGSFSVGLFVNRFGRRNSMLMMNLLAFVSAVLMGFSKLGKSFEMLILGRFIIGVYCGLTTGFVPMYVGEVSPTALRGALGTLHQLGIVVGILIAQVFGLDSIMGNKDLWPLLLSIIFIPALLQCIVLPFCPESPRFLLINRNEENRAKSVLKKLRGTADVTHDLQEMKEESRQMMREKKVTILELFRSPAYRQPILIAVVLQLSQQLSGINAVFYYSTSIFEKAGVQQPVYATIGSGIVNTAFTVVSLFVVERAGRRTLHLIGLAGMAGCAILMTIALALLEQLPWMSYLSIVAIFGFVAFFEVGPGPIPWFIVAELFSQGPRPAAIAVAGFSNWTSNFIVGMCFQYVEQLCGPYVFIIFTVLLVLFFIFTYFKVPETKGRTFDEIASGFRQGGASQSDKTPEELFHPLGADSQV
Type: binding
Details: for β (cooperativity parameter, second inhibitor molecule) / γ (hetero-cooperativity parameter) / Inhibition (type of modulation of CB binding) / Ki: 50 nM [3H]-CB; for β (cooperativity parameter, second inhibitor molecule) / γ (hetero-cooperativity parameter) / Ki: 4°C; for β (cooperativity parameter, second inhibitor molecule) / γ (hetero-cooperativity parameter): eqn 6; for Inhibition (type of modulation of CB binding): competing ligand 0 to 100 μM; for ΔG°: calculated as RT ln(1/KI); for ΔΔG°: change in ΔG° relative to baseline cytochalasin or forskolin; for β*γ: product; for Kd: rounded values; for Ki: eqn 6, iterative free [I]

[1] = read-out: KL (Table 2, taken from Table 1), cytochalasins
[2] = read-out: Ki (affinity of unoccupied GLUT1 for ligand)
[3] = read-out: KL (Table 3, taken from Table 1), forskolins

SMILES	β (cooperativity parameter, second inhibitor molecule)	γ (hetero-cooperativity parameter)	Inhibition (type of modulation of CB binding)	ΔG°	ΔΔG°	β*γ	Ki [2]	Kd [3]	other results
C=C1[C@@H](C)[C@H]2[C@H](Cc3ccccc3)NC(=O)[C@]23[C@H](OC(C)=O)/C=C/[C@](C)(O)C[C@@H](C)C/C=C/[C@H]3[C@@H]1O [CCH, Cytochalasin H]	249 ± 45	0.449 ± 0.019	2	-8.88 kcal/mol	0.00 kcal/mol	110	98 ± 3 nM	–	β (cooperativity parameter, second inhibitor molecule) (listed as CH): 249; γ (hetero-cooperativity parameter) (listed as CH): 0.45; Kd [1]: 100 nM
C=C[C@@]1(C)CC(=O)[C@]2(O)[C@@]3(C)[C@@H](O)CCC(C)(C)[C@@H]3[C@H](OC(C)=O)[C@H](O)[C@@]2(C)O1 [6A7DeAFSK, 6-acetyl, 7-deacetyl-forskolin]	–	–	5	–	–	–	–	–	–
CC[C@@]1(C)CC(=O)[C@@]2(O)[C@]3(C)[C@H](O)CCC(C)(C)[C@H]3[C@@H](O)[C@@H](OC(C)=O)[C@]2(C)O1 [14.15DiHFSK, 14,15-dihydro-forskolin]	242.7 ± 140	0.571 ± 0.015	1	-9.55 kcal/mol	-2.60 kcal/mol	139	29.1 ± 17 nM	30 nM	β (cooperativity parameter, second inhibitor molecule) (listed as 14,15DiH-FSK): 243; γ (hetero-cooperativity parameter) (listed as 14,15DiH-FSK): 0.6
C=C[C@@]1(C)CC(=O)[C@H]2[C@](C)(O1)[C@@H](OC(C)=O)[C@@H](O)[C@H]1C(C)(C)CC[C@H](O)[C@@]12C [9DOFSK, 9-deoxy-forskolin]	120.3 ± 12.3	0.464 ± 0.016	2	-8.07 kcal/mol	-1.12 kcal/mol	56	430 ± 75 nM	430 nM	β (cooperativity parameter, second inhibitor molecule) (listed as 9DeO-FSK): 120; γ (hetero-cooperativity parameter) (listed as 9DeO-FSK): 0.46
C=C1[C@@H](C)[C@H]2[C@H](Cc3ccccc3)NC(=O)[C@]23[C@H](OC(C)=O)/C=C/[C@@](C)(O)C(=O)[C@@H](C)C/C=C/[C@H]3[C@@H]1O [CCD, Cytochalasin D]	101 ± 61	0.557 ± 0.019	3	-7.23 kcal/mol	1.65 kcal/mol	51	–	–	β (cooperativity parameter, second inhibitor molecule) (listed as CD): 101; γ (hetero-cooperativity parameter) (listed as CD): 0.56; Kd (KL (Table 2, taken from Table 1), cytochalasins): 2000 nM; Ki (Ki (affinity of unoccupied GLUT1 for ligand)): 1970 ± 98 nM
C=C[C@@]1(C)CC(=O)[C@]2(O)[C@@]3(C)CCCC(C)(C)[C@@H]3[C@H](O)[C@H](OC(C)=O)[C@@]2(C)O1 [1DOFSK, 1-deoxy-forskolin]	22179 ± 5104	0.438 ± 0.017	2	-11.41 kcal/mol	-4.46 kcal/mol	9714	1 ± 0.7 nM	1 nM	β (cooperativity parameter, second inhibitor molecule) (listed as 1DO-FSK): 22,179 ± 5,104; β (cooperativity parameter, second inhibitor molecule) (listed as 1DeO-FSK): 22000; γ (hetero-cooperativity parameter) (listed as 1DeO-FSK): 0.44
C=C[C@@]1(C)CC(=O)[C@]2(O)[C@@]3(C)[C@@H](O)CCC(C)(C)[C@@H]3[C@H](O)[C@H](O)[C@@]2(C)O1 [7DeAFSK, 7-deacetyl-forskolin]	∞	0.450 ± 0.008	4	-11.02 kcal/mol	-4.07 kcal/mol	∞	2 ± 2 nM	2 nM	γ (hetero-cooperativity parameter) (listed as 7DeA-FSK): 0.45 ± 0.01 and 0.45
C=C1[C@@H](C)[C@H]2[C@H](Cc3ccccc3)NC(=O)[C@]23OC(=O)/C=C/C(=O)CCC[C@@H](C)C/C=C/[C@H]3[C@@H]1O [CCA, Cytochalasin A]	1.11 ± 0.17	0.374 ± 0.052	2	-7.72 kcal/mol	1.17 kcal/mol	0.42	815 ± 96 nM	–	β (cooperativity parameter, second inhibitor molecule) (listed as CA): 1.11; γ (hetero-cooperativity parameter) (listed as CA): 0.38; Kd [1]: 820 nM
CC(=O)O[C@@H]1/C=C\[C@@](C)(O)C(=O)[C@@H](C)C/C=C\[C@H]2[C@H](O)C(C)=C(C)[C@H]3C(Cc4ccccc4)NC(=O)[C@]132 (stereo partly shown) [CCC, Cytochalasin C]	∞	0.433 ± 0.003	4	-7.35 kcal/mol	1.53 kcal/mol	∞	1590 ± 431 nM	–	γ (hetero-cooperativity parameter) (listed as CC): 0.43; Kd [1]: 1600 nM
C=C[C@@]1(C)CC(=O)[C@]2(O)[C@@]3(C)[C@@H](OC(C)=O)CCC(C)(C)[C@@H]3[C@H](O)[C@H](OC(C)=O)[C@@]2(C)O1 [1AFSK, 1-acetyl-forskolin]	11923 ± 8441	0.440 ± 0.008	2	-10.80 kcal/mol	-3.85 kcal/mol	5246	3 ± 2 nM	3 nM	β (cooperativity parameter, second inhibitor molecule) (listed as 1A-FSK): 11923; γ (hetero-cooperativity parameter) (listed as 1A-FSK): 0.44
C=C[C@@]1(C)CC(=O)[C@]2(O)[C@@]3(C)[C@@H](OC(C)=O)CCC(C)(C)[C@@H]3[C@H](OC(C)=O)[C@H](OC(C)=O)[C@@]2(C)O1 [1,6DiAFSK, 1,60diacetyl-forskolin]	1480 ± 268	0.489 ± 0.017	2	–	0.67 kcal/mol	724	–	11 nM	β (cooperativity parameter, second inhibitor molecule) (listed as 1,6DiA-FSK): 1500; γ (hetero-cooperativity parameter) (listed as 1,6DiA-FSK): 0.49
C=C[C@@]1(C)CC(=O)[C@]2(O)[C@@]3(C)[C@@H](O)CCC(C)(C)[C@@H]3[C@H](O)[C@H](OC(=O)CF)[C@@]2(C)O1 [7FAFSK, 7-fluoroacetyl-forskolin]	45.3 ± 5.0	0.475 ± 0.010	2	-7.86 kcal/mol	-0.91 kcal/mol	22	629 ± 0.644 nM	630 nM	β (cooperativity parameter, second inhibitor molecule) (listed as 7FA-FSK): 45; γ (hetero-cooperativity parameter) (listed as 7FA-FSK): 0.48
C=C1[C@@H](C)[C@H]2[C@H](Cc3ccccc3)NC(=O)[C@]23[C@H](O)/C=C/[C@](C)(O)C[C@@H](C)C/C=C/[C@H]3[C@@H]1O [CCJ, Cytochalasin J]	6399 ± 347	0.635 ± 0.013	3	-10.04 kcal/mol	-1.16 kcal/mol	4063	12 ± 1 nM	–	–

— PMC3465710 (Biochemistry, 2011)
